# Laboratory results published in patent US8846653B2, “Delta-tocotrienol treatment and prevention of pancreatic cancer” (University of South Florida, priority 2006, dated 2014).
# Experiments:
# Assay type in all cases: cell-based, human
# BXPC3 cells = experiment: MTT assay of BXPC3 cultures, single 50 μM dose; parameters: MTT assay result, run 1 / MTT assay result, run 2 / MTT assay result, run 3 / MTT assay result, run 4 / MTT assay result, run 5 / MTT assay result, run 6 / MTT assay result, run 7 / MTT assay result, av (average) / MTT assay result, av-blank / MTT assay result, av: unit not given here; settings: BXPC3, 50 μM; for MTT assay result, av-blank: average minus blank
# Procedure, shortened: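 BXPC3 cells in 10% FBS medium at 37° C, 5% CO2, given a single 50 μM dose of tocotrienols, tocopherols, tocopherol succinate, geranylgeraniol, succinic acid or vehicle, alongside untreated control. Viability read by MTT at 48 or 120 hours.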
# MiaPaCa-2 cells [1] = experiment: MTS assay of MiaPaCa2 cultures, single 50 μM dose; settings: MiaPaCa2, 50 μM
# Procedure, shortened: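 MiaPaCa-2 pancreatic cancer cells were grown in complete DMEM with 10% fetal bovine serum, 1% penicillin-streptomycin and 1% L-glutamine, kept at 37° C. in a humidified 5% CO2 incubator. They received a single 50 μM dose of test agent or vehicle alongside an untreated control culture, and viability was assessed by MTS assay.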
# MiaPaCa-2 cells [2] = experiment: MTT assay of MiaPaCa2 cultures, single 50 μM dose; parameters: rel amt (relative value set to the control): unit not given here; settings: MiaPaCa2, 50 μM; for MTT assay result, av-blank: average minus blank; for MTT assay result, av: average of 7 runs
# Procedure, shortened: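 MiaPaCa-2 cells given a single 50 μM dose of test agent (tocotrienols, tocopherols, tocopherol succinate, geranylgeraniol or succinic acid) or vehicle (ethanol-extracted olive oil). Viability read by MTT at 48 or 120 hours after treatment, alongside vehicle-only control culture.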
compound,measurement,setting,value
"CC(C)=CCC/C(C)=C/CC/C(C)=C/CC[C@]1(C)CCc2cc(O)c(C)c(C)c2O1 [T3 gamma, gamma tocotrienol]",rel amt (relative value set to the control),BXPC3 cells; 48 hours,99
same,"MTT assay result, av-blank",BXPC3 cells; 48 hours,0.226
same,"MTT assay result, av (average)","BXPC3 cells; 48 hours, average of 7 runs",0.275
same,"MTT assay result, run 1",BXPC3 cells; 48 hours,0.259
same,"MTT assay result, run 2",BXPC3 cells; 48 hours,0.257
same,"MTT assay result, run 3",BXPC3 cells; 48 hours,0.289
same,"MTT assay result, run 4",BXPC3 cells; 48 hours,0.279
same,"MTT assay result, run 5",BXPC3 cells; 48 hours,0.268
same,"MTT assay result, run 6",BXPC3 cells; 48 hours,0.292
same,"MTT assay result, run 7",BXPC3 cells; 48 hours,0.283
same,rel amt (relative value set to the control),BXPC3 cells; 120 hours (5 days),66
same,"MTT assay result, av-blank",BXPC3 cells; 120 hours (5 days),0.377
same,"MTT assay result, av","BXPC3 cells; 120 hours (5 days), average of 7 runs",0.432
same,"MTT assay result, run 1",BXPC3 cells; 120 hours (5 days),0.418
same,"MTT assay result, run 2",BXPC3 cells; 120 hours (5 days),0.446
same,"MTT assay result, run 3",BXPC3 cells; 120 hours (5 days),0.446
same,"MTT assay result, run 4",BXPC3 cells; 120 hours (5 days),0.457
same,"MTT assay result, run 5",BXPC3 cells; 120 hours (5 days),0.428
same,"MTT assay result, run 6",BXPC3 cells; 120 hours (5 days),0.412
same,"MTT assay result, run 7",BXPC3 cells; 120 hours (5 days),0.42
same,rel amt (relative value set to the control),MiaPaCa-2 cells [1]; 24 hours,66
same,"MTS assay result, run 1",MiaPaCa-2 cells [1]; 24 hours,0.133
same,"MTS assay result, run 2",MiaPaCa-2 cells [1]; 24 hours,0.135
same,"MTS assay result, run 3",MiaPaCa-2 cells [1]; 24 hours,0.141
same,"MTS assay result, run 4",MiaPaCa-2 cells [1]; 24 hours,0.127
same,"MTS assay result, run 5",MiaPaCa-2 cells [1]; 24 hours,0.142
same,"MTS assay result, run 6",MiaPaCa-2 cells [1]; 24 hours,0.166
same,"MTS assay result, run 7",MiaPaCa-2 cells [1]; 24 hours,0.171
same,"MTS assay result, run 8",MiaPaCa-2 cells [1]; 24 hours,0.162
same,"MTS assay result, run 9",MiaPaCa-2 cells [1]; 24 hours,0.147
same,rel amt (relative value set to the control),MiaPaCa-2 cells [1]; 48 hours,37
same,"MTS assay result, run 1",MiaPaCa-2 cells [1]; 48 hours,0.095
same,"MTS assay result, run 2",MiaPaCa-2 cells [1]; 48 hours,0.116
same,"MTS assay result, run 3",MiaPaCa-2 cells [1]; 48 hours,0.111
same,"MTS assay result, run 4",MiaPaCa-2 cells [1]; 48 hours,0.128
same,"MTS assay result, run 5",MiaPaCa-2 cells [1]; 48 hours,0.159
same,"MTS assay result, run 6",MiaPaCa-2 cells [1]; 48 hours,0.147
same,"MTS assay result, run 7",MiaPaCa-2 cells [1]; 48 hours,0.167
same,"MTS assay result, run 8",MiaPaCa-2 cells [1]; 48 hours,0.152
same,"MTS assay result, run 9",MiaPaCa-2 cells [1]; 48 hours,0.134
same,rel amt (relative value set to the control),MiaPaCa-2 cells [1]; 72 hours,177
same,"MTS assay result, run 1",MiaPaCa-2 cells [1]; 72 hours,0.776
same,"MTS assay result, run 2",MiaPaCa-2 cells [1]; 72 hours,0.744
same,"MTS assay result, run 3",MiaPaCa-2 cells [1]; 72 hours,0.876
same,"MTS assay result, run 4",MiaPaCa-2 cells [1]; 72 hours,0.734
same,"MTS assay result, run 5",MiaPaCa-2 cells [1]; 72 hours,0.812
same,"MTS assay result, run 6",MiaPaCa-2 cells [1]; 72 hours,0.817
same,"MTS assay result, run 7",MiaPaCa-2 cells [1]; 72 hours,0.773
same,"MTS assay result, run 8",MiaPaCa-2 cells [1]; 72 hours,0.759
same,"MTS assay result, run 9",MiaPaCa-2 cells [1]; 72 hours,0.786
same,rel amt (relative value set to the control),MiaPaCa-2 cells [2]; 48 hours,40
same,"MTT assay result, av-blank",MiaPaCa-2 cells [2]; 48 hours,0.124
same,"MTT assay result, av",MiaPaCa-2 cells [2]; 48 hours,0.170
same,"MTT assay result, run 1",MiaPaCa-2 cells [2]; 48 hours,0.185
same,"MTT assay result, run 2",MiaPaCa-2 cells [2]; 48 hours,0.181
same,"MTT assay result, run 3",MiaPaCa-2 cells [2]; 48 hours,0.156
same,"MTT assay result, run 4",MiaPaCa-2 cells [2]; 48 hours,0.183
same,"MTT assay result, run 5",MiaPaCa-2 cells [2]; 48 hours,0.21
same,"MTT assay result, run 6",MiaPaCa-2 cells [2]; 48 hours,0.141
same,"MTT assay result, run 7",MiaPaCa-2 cells [2]; 48 hours,0.137
same,rel amt (relative value set to the control),MiaPaCa-2 cells [2]; 120 hours (5 days),2
same,"MTT assay result, av-blank",MiaPaCa-2 cells [2]; 120 hours (5 days),0.042
same,"MTT assay result, av",MiaPaCa-2 cells [2]; 120 hours (5 days),0.094
same,"MTT assay result, run 1",MiaPaCa-2 cells [2]; 120 hours (5 days),0.088
same,"MTT assay result, run 2",MiaPaCa-2 cells [2]; 120 hours (5 days),0.084
same,"MTT assay result, run 3",MiaPaCa-2 cells [2]; 120 hours (5 days),0.098
same,"MTT assay result, run 4",MiaPaCa-2 cells [2]; 120 hours (5 days),0.089
same,"MTT assay result, run 5",MiaPaCa-2 cells [2]; 120 hours (5 days),0.12
same,"MTT assay result, run 6",MiaPaCa-2 cells [2]; 120 hours (5 days),0.084
same,"MTT assay result, run 7",MiaPaCa-2 cells [2]; 120 hours (5 days),0.092
